Test results reported in patent US20210283091A1, “DECREASING IMMUNE ACTIVITY THROUGH MODULATION OF POSTCELLULAR SIGNALING FACTORS” (FLAGSHIP PIONEERING INNOVATIONS V, INC., priority 2018, published 2021).
“Also recorded” adds a separate entry of the source.

How the values were obtained:
NFKB [1] = test: NFKB reporter activity in THP1-Dual monocytes co-cultured with treated A20 cells; format: cell-based, human; conditions: A20 cells treated 24 hours, then co-culture with THP1-Dual cells 24 hours
Method: A20 B-cell leukemia cells were treated with either control (DMSO) or various doses of RSL3, for 24 hours prior to co-culture with THP1-Dual cells for an additional 24 hours. RSL3 was purchased from Selleckchem (Houston, Tex.) and dissolved in DMSO. Subsequently, the THP1 supernatants were assessed for NFKB or IRF reporter activity.
(§1) A20 cells were acquired from ATCC and THP1-Dual cells acquired from InvivoGen (San Diego, Calif.). Both cell types were cultured in 96-well plates for the duration of the assay. 50,000 A20 cells were plated 24 hours prior to dosing with RSL3, with a final DMSO concentration of 0.5%. 24 hours post-treatment, THP1-Dual cells (25,000 cells/well) were added to the A20 cells. 24 hours later, 30 μl of supernatant was mixed with either 200 μl QuantiBlue (InvivoGen, San Diego, Calif.) or 50 μl QuantiLuc and absorbance or luminescence was recorded on a Molecular Devices plate reader.
A20 lymphoma cells were treated with various doses (e.g. 0.002, 0.005, 0.014, 0.041, 0.123, 0.370, 1.111, 3.333 and 10 μM) of a GPX4 inhibitor (RSL3, ML162 or ML210) in the presence or absence of 1 μM Ferrostatin-1 for 24 hours. ML162 was purchased from Cayman Chemical Company Inc and resuspended in DMSO. ML210 was purchased from Sigma-Aldrich and resuspended in DMSO. A20 lymphoma cells were also treated with DMSO as a negative control. After treatment with DMSO or a GPX4 inhibitor for 24 hours, the A20 lymphoma cells were co-cultured with THP1-Dual cells for an additional 24 hours. Subsequently, the THP1 supernatant was assessed for NFKB reporter activity. A20 cells were acquired from ATCC and THP1-Dual cells were acquired from InvivoGen (San Diego, Calif.). Both cell types were cultured in 96-well plates for the duration of the assay.

NFKB [2] = test: NFKB reporter activity in THP1-Dual monocytes co-cultured with treated Jurkat cells; format: cell-based, human; conditions: Jurkat cells treated 24 hours, then co-culture with THP1-Dual cells 24 hours
Method: as §1, with “Jurkat T cell leukemia cells were treated with either control (DMSO) or various doses of RSL3, for 24 hours prior to co-culture with THP1-Dual cells for an additional 24 hours. RSL3 was purchased from Selleckchem (Houston, Tex.) and dissolved in DMSO. Subsequently, the THP1 supernatants were assessed for NFKB or IRF reporter activity. Jurkat cells” for “A20 cells”, “assay. 100,000 Jurkat” for “assay. 50,000 A20”, “the Jurkat” for “the A20”

[3] = tested on: Jurkat T cell leukemia cells; test: Viability of Jurkat T cell leukemia cells treated with RSL3; format: cell-based; conditions: various doses, 24 hours treatment
IRF = IRF reporter activity in THP1-Dual monocytes co-cultured with treated A20 cells; format: cell-based, human; conditions: A20 cells treated 24 hours, then co-culture with THP1-Dual cells 24 hours
Method: A20 B-cell leukemia cells were treated with either control (DMSO) or various doses of RSL3, for 24 hours prior to co-culture with THP1-Dual cells for an additional 24 hours. RSL3 was purchased from Selleckchem (Houston, Tex.) and dissolved in DMSO. Subsequently, the THP1 supernatants were assessed for NFKB or IRF reporter activity. A20 cells were acquired from ATCC and THP1-Dual cells acquired from InvivoGen (San Diego, Calif.). Both cell types were cultured in 96-well plates for the duration of the assay. 50,000 A20 cells were plated 24 hours prior to dosing with RSL3, with a final DMSO concentration of 0.5%. 24 hours post-treatment, THP1-Dual cells (25,000 cells/well) were added to the A20 cells. 24 hours later, 30 μl of supernatant was mixed with either 200 μl QuantiBlue (InvivoGen, San Diego, Calif.) or 50 μl QuantiLuc and absorbance or luminescence was recorded on a Molecular Devices plate reader.

[4] = tested on: A20 B-cell leukemia cells; test: Viability of A20 cells treated with GPX4 inhibitor, with or without Ferrostatin-1; format: cell-based; conditions: various doses, 24 hours treatment
NFKB [5] = test: NFKB reporter activity in THP1-Dual monocytes co-cultured with treated Caki-1 cells; format: cell-based, human; conditions: Caki-1 cells treated 24 hours, then co-culture with THP1-Dual cells 24 hours
Method: Caki-1 renal cell carcinoma cells were treated with either control (DMSO) or various doses of Erastin, for 24 hours prior to co-culture with THP1-Dual cells for an additional 24 hours. Erastin was purchased from Selleckchem (Houston, Tex.) and dissolved in DMSO. Subsequently, the THP1 supernatants were assessed for NFKB or IRF reporter activity. Caki-1 cells were acquired from ATCC and THP1-Dual cells acquired from InvivoGen (San Diego, Calif.). Both cell types were cultured in 96-well plates for the duration of the assay. 7.500 Caki-1 cells were plated 24 hours prior to dosing with Erastin, with a final DMSO concentration of 0.5%. 24 hours post-treatment, THP1-Dual cells (25,000 cells/well) were added to the Caki-1 cells. 24 hours later, 30 μl of supernatant was mixed with either 200 μl QuantiBlue (InvivoGen) or 50 μl QuantiLuc and absorbance or luminescence was recorded on a Molecular Devices plate reader. Caki-1 renal cell carcinoma cells were treated with either control (DMSO) or various doses of RSL3, for 24 hours prior to co-culture with THP1-Dual cells for an additional 24 hours. RSL3 was purchased from Selleckchem and dissolved in DMSO. Subsequently, the THP1 supernatants were assessed for NFKB or IRF reporter activity. Caki-1 cells were acquired from ATCC and THP1-Dual cells acquired from InvivoGen (San Diego, Calif.). Both cell types were cultured in 96-well plates for the duration of the assay. 7.500 Caki-1 cells were plated 24 hours prior to dosing with […], with a final DMSO concentration of 0.5%. 24 hours post-treatment, THP1-Dual cells (25,000 cells/well) were added to the Caki-1 cells. 24 hours later, 30 μl of supernatant was mixed with either 200 μl QuantiBlue (InvivoGen, San Diego, Calif.) or 50 μl QuantiFuc and absorbance or luminescence was recorded on a Molecular Devices plate reader. […] Subsequently, the THP1 supernatant was assessed for NFKB reporter activity. […]

[6] = tested on: Caki-1 renal cell carcinoma cells; test: Viability of Caki-1 renal cell carcinoma cells treated with ferroptosis inducer, with or without Ferrostatin-1; format: cell-based; conditions: various doses, 24 hours treatment

COC(=O)c1ccc([C@H]2c3[nH]c4ccccc4c3C[C@H](C(=O)OC)N2C(=O)CCl)cc1 [RSL3]
NFKB signaling in THP1 monocytes (NFKB [1]): elicited NFKB; also recorded: increased NFKB activity in THP1 cells in a dose dependent manner
NFKB signaling in THP1 monocytes (NFKB [2]): elicited NFKB signaling
viability of Jurkat T cell leukemia cells [3]: negatively affected the viability
IRF signaling in THP1 monocytes (IRF): elicited
viability of A20 cells [4]: negatively affected the viability; also recorded: decreased viability of the cells in a dose dependent manner
NFKB signaling in THP1 monocytes (NFKB [5]): elicited NFKB signaling; also recorded: increased NFKB activity in THP1 cells in a dose dependent manner
viability of Caki-1 cells [6]: negatively affected the viability; also recorded: decreased viability of the cells in a dose dependent manner
